What was measured:
[1] = system: inguinal lymph nodes (LN); assay: Whole organ transcriptome (GeneChip microarray) of draining inguinal lymph nodes 6 h after adjuvant administration: sDEGs, gene modules, hierarchical clustering; type: in vivo, C57BL/6 mice; settings: hierarchical clustering, lymph node; also: key: G1 (interferon signaling); G2 (metabolism of lipids and lipoproteins); G3 (response to stress); G4 (response to wounding); G5 (phosphate-containing compound metabolic process); G6 (phagosome)
[2] = system: preferentially upregulated genes in LV, SP, LN; assay: Z-score-based differential gene expression analysis (adjuvant group- or adjuvant-associated genes, 40 module mapping, TargetMine annotation); type: in vivo, C57BL/6 mice; settings: ID, LV
Excerpt: Each sample's FC value was converted into a z-score on a gene basis by using the entire data set for each organ. The Z-score of the triplicates of interest were summed for each adjuvant. For example, the three sample z-score in the LV sample following cdiGMP administration was summed on a gene-by-gene basis, after which the summed scores of >3 genes were selected as relatively preferentially expressed genes in the LV after cdiGMP administration. The following threshold was applied for selections. […] G2^LV: ALM_IP(z>1) & bCD(z>1) & ENDCN(z>1) & FCA(z>1). […] G4^LV: MALP2s(z>3). […] G2^SP: ENDCN_x2+ENDCN_x3(z>2) & ALM_IP(z>3) & bCD(z>3). […] G4^SP: ADX_ID_x2+ADX_ID_x3(z>2) & ADX_IP(z>3) & MALP2s(z>3). […] G2^LN: bCD(z>3) & FCA(z>3). […] G5^LN: K3(z>1.5) & K3SPG_x1+K3SPG_x2(z>1) & D35_x1+D35_x3(z>1). G6^LN: AddaVax(z>3).

CCOCc1nc2c(N)nc3ccccc3c2n1CC(C)(C)O [R848, 4-amino-2-(ethoxymethyl)-a,a-dimethyl-1H-imidazo[4,5-c]quinoline-1-ethanol]
adjuvant group (cluster) in LN [1]: G1
Adar 1425405_a_at (Group G1, Modules 20) ([2]; sample x1): 1.63
Adar 1434268_at (Group G1, Modules 20) ([2]; sample x1): 2.77
Ddx58 1436562_at (Group G1, Modules 20) ([2]; sample x1): 2.64
Ddx58 1456890_at (Group G1, Modules 20) ([2]; sample x1): 2.42
Eif2ak2 1422005_at (Group G1, Modules 20) ([2]; sample x1): 2.43
G3bp2 1421323_a_at (Group G1, Modules 20) ([2]; sample x1): 2.13
Gm9706///Isg15 1431591_s_at (Group G1, Modules 20) ([2]; sample x1): 2.55
H2-T10///H2-T22///H2-T9 1449875_s_at (Group G1, Modules 20) ([2]; sample x1): 2.05
Ifih1 1426276_at (Group G1, Modules 20) ([2]; sample x1): 3.25
Ifit1 1450783_at (Group G1, Modules 20) ([2]; sample x1): 1.54
Ifit3 1449025_at (Group G1, Modules 20) ([2]; sample x1): 2.19
Irf7 1417244_a_at (Group G1, Modules 20) ([2]; sample x1): 2.27
Irgm1 1418825_at (Group G1, Modules 20) ([2]; sample x1): 2.87
Mndal 1426906_at (Group G1, Modules 20) ([2]; sample x1): 1.65
Pml 1448757_at (Group G1, Modules 20) ([2]; sample x1): 1.77
Pml 1456103_at (Group G1, Modules 20) ([2]; sample x1): 3.66
Rnf213 1455500_at (Group G1, Modules 20) ([2]; sample x1): 1.29
Rsad2 1436058_at (Group G1, Modules 20) ([2]; sample x1): 1.97
Shisa5 1423986_a_at (Group G1, Modules 20) ([2]; sample x1): 2.93
Shisa5 1437503_a_at (Group G1, Modules 20) ([2]; sample x1): 3.09
Stat1 1450033_a_at (Group G1, Modules 20) ([2]; sample x1): 1.4
Stat1 1450034_at (Group G1, Modules 20) ([2]; sample x1): 2.37
Tdrd7 1426716_at (Group G1, Modules 20) ([2]; sample x1): 1.79
Tor1aip2 1418115_s_at (Group G1, Modules 20) ([2]; sample x1): 1.53
Tor1aip2 1418116_at (Group G1, Modules 20) ([2]; sample x1): 1.45
Tor1aip2 1435526_at (Group G1, Modules 20) ([2]; sample x1): 3.12
Trim12a 1437432_a_at (Group G1, Modules 20) ([2]; sample x1): 2.13
Uba7 1426970_a_at (Group G1, Modules 20) ([2]; sample x1): 2.64
Adar 1425405_a_at (Group G1, Modules 20) ([2]; sample x2): 1.17
Adar 1434268_at (Group G1, Modules 20) ([2]; sample x2): 1.8
Ddx58 1436562_at (Group G1, Modules 20) ([2]; sample x2): 2.33
Ddx58 1456890_at (Group G1, Modules 20) ([2]; sample x2): 1.34
Eif2ak2 1422005_at (Group G1, Modules 20) ([2]; sample x2): 1.56
G3bp2 1421323_a_at (Group G1, Modules 20) ([2]; sample x2): 1.21
Gm9706///Isg15 1431591_s_at (Group G1, Modules 20) ([2]; sample x2): 2.1
H2-T10///H2-T22///H2-T9 1449875_s_at (Group G1, Modules 20) ([2]; sample x2): 2.01
Ifih1 1426276_at (Group G1, Modules 20) ([2]; sample x2): 2.46
Ifit1 1450783_at (Group G1, Modules 20) ([2]; sample x2): 1.14
Ifit3 1449025_at (Group G1, Modules 20) ([2]; sample x2): 1.76
Irf7 1417244_a_at (Group G1, Modules 20) ([2]; sample x2): 2.39
Irgm1 1418825_at (Group G1, Modules 20) ([2]; sample x2): 2.12
Mndal 1426906_at (Group G1, Modules 20) ([2]; sample x2): 1.42
Pml 1448757_at (Group G1, Modules 20) ([2]; sample x2): 1.53
Pml 1456103_at (Group G1, Modules 20) ([2]; sample x2): 1.62
Rnf213 1455500_at (Group G1, Modules 20) ([2]; sample x2): 1.03
Rsad2 1436058_at (Group G1, Modules 20) ([2]; sample x2): 1.77
Shisa5 1423986_a_at (Group G1, Modules 20) ([2]; sample x2): 2.32
Shisa5 1437503_a_at (Group G1, Modules 20) ([2]; sample x2): 2.43
Stat1 1450033_a_at (Group G1, Modules 20) ([2]; sample x2): 1.2
Stat1 1450034_at (Group G1, Modules 20) ([2]; sample x2): 1.92
Tdrd7 1426716_at (Group G1, Modules 20) ([2]; sample x2): 1.21
Tor1aip2 1418115_s_at (Group G1, Modules 20) ([2]; sample x2): 1.08
Tor1aip2 1418116_at (Group G1, Modules 20) ([2]; sample x2): 1.22
Tor1aip2 1435526_at (Group G1, Modules 20) ([2]; sample x2): 2.18
Trim12a 1437432_a_at (Group G1, Modules 20) ([2]; sample x2): 1.94
Uba7 1426970_a_at (Group G1, Modules 20) ([2]; sample x2): 2.42
Adar 1425405_a_at (Group G1, Modules 20) ([2]; sample x3): 0.96
Adar 1434268_at (Group G1, Modules 20) ([2]; sample x3): 1
Ddx58 1436562_at (Group G1, Modules 20) ([2]; sample x3): 1.6
Ddx58 1456890_at (Group G1, Modules 20) ([2]; sample x3): 0.95
Eif2ak2 1422005_at (Group G1, Modules 20) ([2]; sample x3): 1.09
G3bp2 1421323_a_at (Group G1, Modules 20) ([2]; sample x3): 1.04
Gm9706///Isg15 1431591_s_at (Group G1, Modules 20) ([2]; sample x3): 1.95
H2-T10///H2-T22///H2-T9 1449875_s_at (Group G1, Modules 20) ([2]; sample x3): 1.77
Ifih1 1426276_at (Group G1, Modules 20) ([2]; sample x3): 2.36
Ifit1 1450783_at (Group G1, Modules 20) ([2]; sample x3): 0.63
Ifit3 1449025_at (Group G1, Modules 20) ([2]; sample x3): 1.49
Irf7 1417244_a_at (Group G1, Modules 20) ([2]; sample x3): 2.37
Irgm1 1418825_at (Group G1, Modules 20) ([2]; sample x3): 2.02
Mndal 1426906_at (Group G1, Modules 20) ([2]; sample x3): 1.21
Pml 1448757_at (Group G1, Modules 20) ([2]; sample x3): 0.66
Pml 1456103_at (Group G1, Modules 20) ([2]; sample x3): 1.29
Rnf213 1455500_at (Group G1, Modules 20) ([2]; sample x3): 0.72
Rsad2 1436058_at (Group G1, Modules 20) ([2]; sample x3): 0.67
Shisa5 1423986_a_at (Group G1, Modules 20) ([2]; sample x3): 2.23
Shisa5 1437503_a_at (Group G1, Modules 20) ([2]; sample x3): 2.49
Stat1 1450033_a_at (Group G1, Modules 20) ([2]; sample x3): 1.05
Stat1 1450034_at (Group G1, Modules 20) ([2]; sample x3): 1.52
Tdrd7 1426716_at (Group G1, Modules 20) ([2]; sample x3): 0.94
Tor1aip2 1418115_s_at (Group G1, Modules 20) ([2]; sample x3): 0.54
Tor1aip2 1418116_at (Group G1, Modules 20) ([2]; sample x3): 0.89
Tor1aip2 1435526_at (Group G1, Modules 20) ([2]; sample x3): 1.22
Trim12a 1437432_a_at (Group G1, Modules 20) ([2]; sample x3): 1.68
Uba7 1426970_a_at (Group G1, Modules 20) ([2]; sample x3): 2.27

— patent US20230021483A1, “[…] […] METHOD AND CLASSIFICATION OF PHARMACEUTICAL COMPONENTS BY USING TRANSCRIPTOMES” (National Institutes of Biomedical Innovation, Health and …, priority 2016, published 2023)
